Data on 71 molecules can be found in the OPERA property sets (Mansouri et al. 2018).

Molecules are shown by their SMILES. Where a SMILES comes first, the peptide text is derived from it. [ ]: non-standard residue; d: D form. ξ: configuration not given here. ξW = NC(Cc1c[nH]c2ccccc12)C(=O)O

For the molecule `CCC1CC2C3CCC4=CC(=O)CCC4C3CCC2(C)C1C(=O)CO` (stereo unspecified), the logP – broadly, a log measure of how a compound divides between an organic and an aqueous phase – was found to be 4.01.

`O=[n+]1cnn([O-])c2ccccc21`: the log partition coefficient (logP) was -0.8.

Molecule `COC(=O)c1cc2ccc3cccc4ccc(c1)c2c34` gave a log partition coefficient (logP) of 4.85.

Molecule `CN1CCN(Cc2cnccc2Cl)C1=N[N+](=O)[O-]` returned a logP of 0.26.

`Cc1cn(C2C=CC(COP3(=O)OCc4cc([N+](=O)[O-])ccc4O3)O2)c(=O)[nH]c1=O` (stereo unspecified) registered a logP of 0.18.

The molecule `Cc1ccc(OC(=O)CNC(=O)c2ccccc2)c(C)c1` had a logP of 3.4.

`O=C(O)C(c1ccc(-c2ccccc2)cc1)C(O)c1ccccc1` (stereo unspecified) registered a logP of 3.6.

The molecule `CC(C)C(NC(=O)C(N)Cc1ccccc1)C(=O)NC(Cc1ccc(O)cc1)C(=O)NC(Cc1ccccc1)C(=O)O` (stereo unspecified) (H-FVYF-OH; configuration not given here) displayed a lipophilicity (logP) of -0.32.

The molecule `Cc1oc2ccc3c(C)cc(=O)oc3c2c1C` returned a logP of 3.28.

The molecule `Cc1cccc(Cc2cnc[nH]2)c1C` displayed a lipophilicity (logP) of 2.68.

Take `CN(C)CCCCc1ccccc1`: the logP is 3.15.

Molecule `O=C(O)CCCCCON=C(c1ccccc1)c1cncnc1` returned a logP of 2.91.

In turn, `COc1cc2c(Nc3cc(CC(=O)Nc4cccc(F)c4F)[nH]n3)ncnc2cc1OCCCN1CCCC1CO` (stereo unspecified) showed a log partition coefficient (logP) of 3.6.

Regarding `CCOC(=O)CCCn1cnc([N+](=O)[O-])n1`, the logP was 0.42.

Molecule `CCN(CC)C1CCc2c(OC)cccc2C1C` (stereo unspecified) came in with a logP of 3.47.

Consider `Clc1ccc(N2CCN(CCCOn3nnc4ccccc43)CC2)cc1`, for which the logP came out at 4.15.

Consider `CC1(C(=O)O)CSC(c2cc(O)ccc2O)=N1` (stereo unspecified), for which the logP turned out to be 1.3.

For `CCCCc1cnc(C2=NC(C)(C(C)C)C(=O)N2)c(C(=O)O)c1` (stereo unspecified), the logP came out at 1.99.

`C=CC(=O)OCCOCCO` returned a logP of -0.3.

As to `CCC(C)C(NC(C)=O)C(=O)NC(Cc1ccccc1)C(=O)NC(CCCNC(=N)N)C(N)=O` (stereo not drawn) (Ac-Ile-Phe-Arg-NH2; configuration not given here), the logP was -0.05.

Consider `CCCCOC(NC(=O)c1ccccc1O)C(Cl)(Cl)Cl` (stereo unspecified), for which the logP was found to be 4.45.

`CCOC(=O)C1=C(C)NC(C)=C(C(=O)OC)C1c1ccccc1OCOC` (stereo unspecified): the logP came out at 3.78.

For the molecule `Cc1cc(CCCCCCCOc2ccc(C3=NCCO3)cc2)on1`, the logP stood at 4.79.

As to `Cc1ccccc1C1CCc2c(C(=O)N(C)C)cn3c(C)c(C)nc3c2O1` (stereo unspecified), the logP stood at 3.5.

As for `CCC(C)C(NC(=O)C1CCCN1)C(=O)O` (stereo not drawn) (H-Pro-Ile-OH; configuration not given here), the lipophilicity (logP) was -2.56.

`CCNc1[nH]cnc2ncnc1-2`: the logP is 0.92.

The molecule `COc1ccc(C2Cc3c(cccc3[N+](=O)[O-])N(CCN(C)C)C(=O)C2OC(C)=O)cc1` (stereo unspecified) yielded a logP of 3.7.

Consider `CC(C)NCC(O)COc1ccc(Cc2nc(Br)c[nH]2)cc1` (stereo unspecified), for which the logP turned out to be 2.2.

The molecule `CNc1ccncc1S(=O)(=O)NC(=NC#N)NC(C)C` showed a logP of -0.65.

In turn, `C[C@@H]1N=C(c2ccccc2Cl)c2cc([N+](=O)[O-])ccc2NC1=O` gave a logP of 2.72.

For the molecule `CC1(C)CC(=O)C=C(N2CCCCC2)C1`, the logP turned out to be 2.83.

With `CC(CO)CNc1[nH]cnc2ncnc1-2` (stereo unspecified), the logP came out at 0.61.

As for `NC(Cc1c[nH]c2ccccc12)C(=O)NCC(=O)NCC(=O)O` (stereo not drawn) (H-[ξW]-Gly-Gly-OH), the logP is -2.72.

`CN(C)CCC(c1ccccc1)c1ccccc1` came in with a logP of 4.31.

For the molecule `CC(C)CC(NC(=O)C(NC(=O)C(CC(C)C)NC(=O)C(N)C(C)C)C(C)C)C(=O)O` (stereo unspecified) (H-VLVL-OH; configuration not given here), the logP was -1.23.

As to `CCCC(=O)OC1Cc2c(O)cc(O)cc2OC1c1ccc(O)c(O)c1` (stereo unspecified), the logP stood at 2.47.

For `CCCCOCCCCCNC(=O)NC12CC3CC(CC(C3)C1)C2`, the logP was 5.

For `CCCCC(Nc1ccc([N+](=O)[O-])cc1[N+](=O)[O-])C(=O)O` (stereo unspecified), the logP was 3.25.

On to `CCCNCc1ccc(C)cc1`, for which the logP amounted to 2.96.

`CCC(C)C(N)C(=O)NC(C(=O)NCC(=O)NC(Cc1ccccc1)C(=O)O)C(C)CC` (stereo unspecified) (H-IIGF-OH; configuration not given here) came in with a logP of -0.99.

Regarding `CN1CC(O)N(C(=O)NC2CCCCCC2)C1=O` (stereo unspecified), the logP came out at 2.29.

In turn, `CN1CC(O)N(C(=O)NCCCl)C1=O` (stereo unspecified) had a logP of 0.71.

In the case of `CNC1=NS(=O)N=C1NCCSCc1ccc(CN(C)C)o1` (stereo unspecified), the logP came to 0.89.

Regarding `O=C(O)C(Cc1ccccc1)NC(=O)C1CCCN1` (stereo not drawn) (H-Pro-Phe-OH; configuration not given here), the logP is -2.07.

Regarding `Nc1nc(O)nc(Nc2ccccc2)n1`, the logP worked out at 1.9.

`O=C1Nc2ccc(Cl)cc2C(c2ccccc2F)=NC1O` (stereo unspecified) registered a logP of 1.81. This logP and that of the molecule before are within 0.2 log units of each other.

`CC(=O)NN=Cc1c(CO)ccc(C)c1O` yielded a lipophilicity (logP) of 1.71.

`CC(C)(C)c1ccc(C(CCN2CCCC2)c2ccccc2)cc1` (stereo unspecified) returned a logP of 6.72.

`OCCCCCCCCNc1[nH]cnc2ncnc1-2`: the logP stood at 2.23.

As to `CCC(C)C(N)C(=O)NC(Cc1ccc(O)cc1)C(=O)NC(C(=O)O)C(C)C` (stereo not drawn) (H-Ile-Tyr-Val-OH; configuration not given here), the logP was -1.77.

Regarding `NCCCOC1Cc2c(O)cc(O)cc2OC1c1ccc(O)c(O)c1` (stereo unspecified), the log partition coefficient (logP) worked out at 0.52.

Take `CCOc1ccc(NC(=O)OCCN2CCCCC2)cc1`: the logP was 3.41.

The molecule `CCNC(=NC#N)NS(=O)(=O)c1cnccc1NC1CCCCC1` registered a log partition coefficient (logP) of 0.94.

On to `Cc1c2occc2cc2ccc(=O)oc12`, for which the logP was 2.48.

`CC(C)CC(NC(=O)C1CCCN1)C(=O)O` (stereo not drawn) (H-Pro-Leu-OH; configuration not given here) displayed a logP of -2.41.

The molecule `CCCCNCc1ccc(C)cc1` gave a logP of 3.49.

`O=C(NO)NN=Cc1cccc(C(F)(F)F)c1` displayed a logP of 1.64.

Take `NC(=O)c1cccc(Cc2ncccn2)c1`: the logP amounted to 0.28.

For the molecule `CCCCN(CCCC)C1CCc2c(OC)cccc2C1C` (stereo unspecified), the logP worked out at 5.61.

In turn, `Cc1nc([N+](=O)[O-])c(Cl)[nH]1` returned a logP of 1.06.

`CC(C)CC(NC(=O)C(NC(=O)C1CCCN1C(=O)C(N)C(C)C)C(C)C)C(=O)O` (stereo unspecified) (H-VPVL-OH; configuration not given here) had a lipophilicity (logP) of -1.91.

The molecule `c1nc(N2CCCCC2)c2[nH]cnc2n1` had a logP of 2.11.

As for `CCC(C)C(NC(=O)C(CCCNC(=N)N)NC(C)=O)C(=O)NC(Cc1ccccc1)C(N)=O` (stereo not drawn) (Ac-Arg-Ile-Phe-NH2; configuration not given here), the logP was -0.04.

`O=S(=O)(NC(=S)NC1CCCCC1)c1cnccc1NC1CCCCCC1` had a logP of 4.71.

The molecule `Cc1ccc(CO)c(C=NNC(=O)c2ccc(N)cc2)c1O` showed a logP of 2.16.

Regarding `CCCNc1ccncc1S(=O)(=O)NC(=NC#N)NC(C)C`, the logP worked out at 0.35.

As to `Cc1cccc(C)c1-c1cnc[nH]1`, the logP turned out to be 2.38.

The molecule `O=C1c2ccccc2-c2nnc(-c3ccc(O)cc3)cc21` returned a logP of 2.88.

`COc1ccc(C2Cc3c(OC)cccc3N(CCN(C)C)C(=O)C2OC(C)=O)cc1` (stereo unspecified) returned a logP of 3.9.

Regarding `CCC(C)C(NC(=O)C(CC(C)C)NC(=O)C(N)C(C)O)C(=O)O` (stereo not drawn) (H-Thr-Leu-Ile-OH; configuration not given here), the logP is -1.66.

`CCCCCOC1CCC(NC(=O)NC23CC4CC(CC(C4)C2)C3)CC1` (stereo unspecified): the logP came to 5.
